Data set [1] deals with T1, butyrylcholinesterase (BuChE, from horse serum) (Equus caballus, UniProt P81908).
T1 construct: purchased Sigma-Aldrich
Put plainly: biochemical. Conditions: equine serum BuChE, Ellman's method, pH 7.4; means ± SEM of at least three experiments; read-out: IC50 BuChE Inhibition. The protocol:
(§1) Cholinesterase (ChE) inhibitory activity was evaluated using a modified Ellman’s spectrophotometric method. Acetylcholinesterase (AChE, from electric eel), butyrylcholinesterase (BuChE, from equine serum), 5,5′-dithiobis-(2-nitrobenzoic acid) (Ellman’s reagent, DTNB), S-butyrylthiocholine iodide (BTCI), acetylthiocholine iodide (ATCI), and tarcine hydrochloride were purchased from Sigma-Aldrich. Tarcine hydrochloride was used as a reference standard. All the assays were carried out in 0.1 M KH2PO4/K2HPO4 buffer (pH = 7.4). Stock solutions of tested compounds (10 mM) were prepared in DMSO (below 0.5%, v/v) and diluted in phosphate buffer. The assay was performed in 96-well plate by adding 25 μL of 1 mM acetylthiocholine iodide or butyrylthiocholine iodide used as substrate in the assay, 125 μL of 1 mM 5,5′-dithiobis-(2-nitrobenzoic acid) (DTNB), 25 μL of 0.1 M phosphate buffer (pH = 7.4), 25 μL of testing substance in various concentrations, and 50 μL of 0.2 Units/mL AChE from an electric eel or BuChE from equine serum, respectively. At least five concentrations of the test compounds were assayed. […] The enzyme activity and the percentage inhibition were determined.
Background: DTNB colorimetry detects thiols as they appear.

Data set [2] concerns the target T2, acetylcholinesterase (AChE, from an electric eel) (Electrophorus electricus, UniProt O42275).
T2 construct: purchased Sigma-Aldrich
The experiment in a line: biochemical. Conditions: for IC50: electric eel AChE, Ellman's method, pH 7.4, means ± SEM of at least three experiments, read-out: IC50 AChE Inhibition; for Selectivity Index = IC50 (AChE)/IC50 (BuChE): ratio of eeAChE and equine BuChE IC50. The protocol: as §1

Data set [3] is described as follows: Metal chelation by UV–vis spectrometry, Job's method and affinity estimate (Cu). The following applies: CH3OH/H2O (v/v = 9/1), UV–vis, 2L+M⇔ML2. The class given is physicochemical. The source says: (§2) Given the 8-hydroxy(amino)quinoline moiety with the properties to bind metal ions, the abilities of all the compounds in binding metal ions (Cu^II, Fe^III, Zn^II) were studied by UV–vis spectrometry. At first three compounds were chose to test the binding abilities. Upon the addition of CuCl2 or ZnSO4 the maximum absorption suffered a bathochromic shift, pointing out the formation of complex compound–Cu^II. […] […].
(§3) To determine the stoichiometry of the complex compound–Cu^II, the technique of continuous variations (also called Job’s method) was used by preparing solutions of compounds 15a, 17b and CuSO4 so that the sum of concentrations of both species was constant at […] in all samples, but the proportions of both components varied between 0 and 100%. The UV spectra were recorded and the absorbance change at the maximum absorption wavelength of the compound-Cu^II complex, meaning the 15a-Cu^II complex at 264 nm and the 17b-Cu^II at 265 nm, respectively. The absorbance change was plotted versus the mole fraction of the compound, giving two straight lines whose equations were calculated. […] […].
(§4) Since all the ligands studied L from ML2 species and in accordance with the Beer–Lambert law, complexation reactions can be summarized as 2L+M⇔ML2 with K = 1−α/4C^2α^3 , and α can be calculated from the data of the absorption.
(§5) Metal-chelating properties were evaluated by UV–vis spectrometry. To screen the ability of chelating metal ions, the same concentrations of compound and metal ion were mixed in CH3OH/H2O (v/v = 9/1), and the UV–vis spectrum was tested; compared to the compound, the maximum absorption that suffered a bathochromic shift would point out the formation of a complex compound–metal ion. The stoichiometry of the complex compound–metal ion was determined by Job’s method. The affinity of compounds 15–17 as ligands (excepted 15f, 16d, 16g, 16k) for Cu^II or Zn^II were estimated in the CH3OH/H2O solution (v/v = 9/1). Since all the ligands studied L from ML2 species and in accordance with the Beer–Lambert law, complexation reactions can be summarized as 2L+M⇔ML2 with K = 1−α/4C^2α^3 , and α = A/Amax; A was the data of absorption tested when the compound–metal ion = 2/1 under the maximum absorption wavelength of the complex, Amax was the absorption when the compound completely formed a complex with the metal ion; the data can be obtained as an approximation when the metal ion is in excess, and the absorption changes little as the concentration of metal ion still increases.

A short description of data set [4]: Metal chelation by UV–vis spectrometry, stoichiometry and affinity estimate (Zn). The class given is physicochemical. Conditions: CH3OH/H2O (v/v = 9/1), 2L+M⇔ML2.
Source text: as §2, §3, §4, §5

The target in another data set is T3, Aβ1–42 (Homo sapiens, UniProt P05067).
T3 construct: aggregation of Aβ1–42 synthetic peptide into fibrils
Put plainly: Inhibition of self-induced Aβ1–42 aggregation (ThT fluorescence). The class given is biochemical. Conditions: 20 μM compound, thioflavin-T fluorescence, mean ± SD of at least three independent experiments; read-out: Aβ Aggregation Inhibition (%), self-induced Aβ1–42. The protocol:
Self-induced Aβ1–42 aggregation of all the compounds we obtained was also evaluated. […] ThT is a histochemical dye that is known to bind to the peptide β-sheet conformation, which is the predominant secondary structure of amyloid-beta fibrils. […] The inhibition studies were carried out upon incubating Aβ1–42 with and without the compounds.
Aβ1–42 was dissolved in 100% 1,1,1,3,3,3-[…] (HFIP) to a concentration of 1 mg/mL, sonicated in a water bath overnight, aliquoted into microcentrifuge tubes, dried under vacuum, and stored at −20 °C. Immediately prior to use, the HFIP-treated Aβ1–42 was dissolved in dimethylsulfoxide (DMSO) as the stored solution. […] Amounts of 5 μL of compound (200 μM) and 5 μL of 200 μM Aβ1–42 were added into 40 μL of phosphate-buffered saline (PBS at pH 7.4). After incubation at room temperature on a thermostatic shaker for 72 h, 100 μL of 5 μM ThT solution (in PBS at pH 7.4) was added to the reaction solution. […] The Aβ1–42 aggregation inhibition percentage was calculated using the following formula: inhibition percentage = (F1 − F2)/(F1 − F0) × 100%.

T2 sequence (O42275 24-633): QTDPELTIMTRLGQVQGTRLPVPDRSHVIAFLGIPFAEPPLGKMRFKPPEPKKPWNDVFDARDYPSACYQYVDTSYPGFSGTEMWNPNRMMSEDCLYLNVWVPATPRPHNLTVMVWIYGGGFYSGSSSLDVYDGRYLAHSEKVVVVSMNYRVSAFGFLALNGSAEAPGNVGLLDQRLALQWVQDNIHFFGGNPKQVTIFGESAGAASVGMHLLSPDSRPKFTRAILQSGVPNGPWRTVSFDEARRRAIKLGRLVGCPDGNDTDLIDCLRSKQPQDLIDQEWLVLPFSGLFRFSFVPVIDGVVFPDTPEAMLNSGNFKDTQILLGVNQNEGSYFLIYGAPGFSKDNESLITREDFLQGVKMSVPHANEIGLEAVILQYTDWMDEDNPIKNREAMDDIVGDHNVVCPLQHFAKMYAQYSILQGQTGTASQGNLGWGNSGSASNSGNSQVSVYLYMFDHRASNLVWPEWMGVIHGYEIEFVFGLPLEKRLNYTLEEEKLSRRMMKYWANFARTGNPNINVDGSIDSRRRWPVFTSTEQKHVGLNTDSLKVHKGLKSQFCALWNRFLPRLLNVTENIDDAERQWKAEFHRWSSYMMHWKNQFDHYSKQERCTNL
T3 sequence (P05067 672-713): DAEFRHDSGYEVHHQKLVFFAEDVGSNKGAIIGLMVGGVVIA
T1 sequence (P81908 whole entry): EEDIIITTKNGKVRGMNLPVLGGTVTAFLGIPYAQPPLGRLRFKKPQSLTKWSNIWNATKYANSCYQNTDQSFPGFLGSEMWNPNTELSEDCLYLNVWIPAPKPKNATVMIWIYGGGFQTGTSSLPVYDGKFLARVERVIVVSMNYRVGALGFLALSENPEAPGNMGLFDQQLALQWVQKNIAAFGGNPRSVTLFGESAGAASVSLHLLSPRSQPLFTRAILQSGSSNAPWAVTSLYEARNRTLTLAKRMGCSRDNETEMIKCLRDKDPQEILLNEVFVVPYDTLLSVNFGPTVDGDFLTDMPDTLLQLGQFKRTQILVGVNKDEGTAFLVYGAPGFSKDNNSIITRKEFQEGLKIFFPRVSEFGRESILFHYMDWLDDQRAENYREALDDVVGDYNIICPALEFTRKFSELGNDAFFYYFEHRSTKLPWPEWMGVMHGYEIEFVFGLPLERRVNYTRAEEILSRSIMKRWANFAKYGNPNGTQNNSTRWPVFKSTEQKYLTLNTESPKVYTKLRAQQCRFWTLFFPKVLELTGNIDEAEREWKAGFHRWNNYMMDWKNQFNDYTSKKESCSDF

By IC50 is commonly meant the point on the concentration scale where inhibition reaches its midpoint. The inhibition is the drop in the measured response relative to a control, in per cent. `Oc1ccc(F)c2ccc(CN3CCN(CCNc4c5c(nc6ccccc46)CCCC5)CC3)nc12` [Compound 16b, 5-Fluoro-2-((4-(2-((1,2,3,4-tetrahydroacridin-9-yl)amino)ethyl)piperazin-1-yl)methyl)quinolin-8-ol]: the half-maximal inhibitory concentration (IC50) in data set [1] was 200 ± 3 nM; in data set [2], 190 ± 5 nM. Also, the “Selectivity Index = IC50 (AChE)/IC50 (BuChE)” value (“Selectivity Index = IC50” for short) in data set [2] came to 0.95. For the same compound, the “LogK Cu (affinity of ligand for Cu^II, ML2)” value (“LogK Cu” for short) in data set [3] is 9.99. The “LogK Zn (affinity of ligand for Zn^II, ML2)” value (shortened to “LogK Zn”) in data set [4] is listed as 9.63. Besides, the inhibition at 20 µM at Aβ1–42 was found to be 22.9 ± 2.4%.
With `Oc1c(Cl)cc(Cl)c2ccc(CN3CCN(CCNc4c5c(nc6ccccc46)CCCC5)CC3)nc12` [Compound 16c, 5,7-Dichloro-2-((4-(2-((1,2,3,4-tetrahydroacridin-9-yl)amino)ethyl)piperazin-1-yl)methyl)quinolin-8-ol], the half-inhibitory concentration (IC50) in data set [1] stood at 3410 ± 6 nM; in data set [2], 2680 ± 300 nM. Besides, the “Selectivity Index = IC50” value in data set [2] stood at 0.79. Further, the “LogK Cu” value in data set [3] is listed as 9.75. In addition, the “LogK Zn” value in data set [4] is reported as 9.28. For the same compound, on Aβ1–42, the inhibition at 20 µM was determined as 92.5 ± 3.3%.
Regarding `Nc1cccc2ccc(CN3CCN(CCNc4c5c(nc6ccccc46)CCCC5)CC3)nc12` [Compound 16d, N-(2-(4-((8-aminoquinolin-2-yl)methyl)piperazin-1-yl)ethyl)-1,2,3,4-tetrahydroacridin-9-amine], the IC50 in data set [1] was 210 ± 3 nM. Further, in data set [2], the IC50 was 180 ± 4 nM and the “Selectivity Index = IC50” value is listed as 0.86. For the same compound, the inhibition at 20 µM on Aβ1–42 worked out at 84.7 ± 3.6%.
On to `O=C(CN1CCN(Cc2ccc3c(Cl)cc(Cl)c(O)c3n2)CC1)Nc1c2c(nc3ccccc13)CCCC2` [Compound 15e, 2-(4-((5,7-Dichloro-8-hydroxyquinolin-2-yl)methyl)piperazin-1-yl)-N-(1,2,3,4-tetrahydroacridin-9-yl)acetamide], for which the half-inhibitory concentration (IC50) in data set [1] is 5530 ± 270 nM. For the same compound, in data set [2], the IC50 was 5730 ± 170 nM and the “Selectivity Index = IC50” value was found to be 1.04. For the same compound, the “LogK Cu” value in data set [3] is recorded as 9.59. For the same compound, in data set [4], the “LogK Zn” value is listed as 9.65. The inhibition at 20 µM on Aβ1–42 worked out at 55.9 ± 2.5%.
Regarding `O=C(CN1CCN(Cc2ccc(O)c3ncccc23)CC1)Nc1c2c(nc3ccccc13)CCCC2` [Compound 17a, 2-(4-((8-Hydroxyquinolin-5-yl)methyl)piperazin-1-yl)-N-(1,2,3,4-tetrahydroacridin-9-yl)acetamide], the values for the IC50 in data set [1] and in data set [2] were 4130 ± 100 nM and 4460 ± 330 nM, respectively. Besides, the “Selectivity Index = IC50” value in data set [2] is on record as 1.08. Besides, the “LogK Cu” value in data set [3] is on record as 9.50. Further, in data set [4], the “LogK Zn” value is 9.67. Moreover, the inhibition at 20 µM at Aβ1–42 amounted to 24.6 ± 3.7%.
Turning to `Nc1cccc2ccc(CN3CCN(CCCCCNc4c5c(nc6ccccc46)CCCC5)CC3)nc12` [Compound 16k, N-(5-(4-((8-aminoquinolin-2-yl)methyl)piperazin-1-yl)pentyl)-1,2,3,4-tetrahydroacridin-9-amine], the half-inhibitory concentration (IC50) in data set [1] is 54 ± 4 nM; in data set [2], 210 ± 3 nM. Further, the “Selectivity Index = IC50” value in data set [2] came to 3.89. The inhibition at 20 µM on Aβ1–42 is 86.7 ± 3.8%.
With `Oc1ccc(F)c2ccc(CN3CCN(CCCCCNc4c5c(nc6ccccc46)CCCC5)CC3)nc12` [Compound 16i, 5-Fluoro-2-((4-(5-((1,2,3,4-tetrahydroacridin-9-yl)amino)pentyl)piperazin-1-yl)methyl)quinolin-8-ol], in data set [1], the IC50 is 120 ± 20 nM. For the same compound, in data set [2], the IC50 was 400 ± 6 nM and the “Selectivity Index = IC50” value came out at 3.33. Moreover, the “LogK Cu” value in data set [3] was 9.49. In addition, the “LogK Zn” value in data set [4] is reported as 9.49. Besides, on Aβ1–42, the inhibition at 20 µM came to 55.6 ± 5.3%.
As to `O=C(CN1CCN(Cc2ccc3c(Cl)ccc(O)c3n2)CC1)Nc1c2c(nc3ccccc13)CCCC2` [Compound 15b, 2-(4-((5-Chloro-8-hydroxyquinolin-2-yl)methyl)piperazin-1-yl)-N-(1,2,3,4-tetrahydroacridin-9-yl)acetamide], the results for the half-inhibitory concentration (IC50) in data set [1] and in data set [2] were 11500 ± 1560 nM and 2180 ± 170 nM, respectively. Further, the “Selectivity Index = IC50” value in data set [2] is 0.19. Moreover, the “LogK Cu” value in data set [3] was 10.09. Also, the “LogK Zn” value in data set [4] is reported as 11.34.
Consider `Oc1ccc(Cl)c2ccc(CN3CCN(CCCCCNc4c5c(nc6ccccc46)CCCC5)CC3)nc12` [Compound 16j, 5-Chloro-2-((4-(5-((1,2,3,4-tetrahydroacridin-9-yl)amino)pentyl)piperazin-1-yl)methyl)quinolin-8-ol], for which the IC50 in data set [1] turned out to be 45 ± 11 nM. Further, in data set [2], the IC50 was found to be 130 ± 20 nM and the “Selectivity Index = IC50” value is on record as 2.89. Besides, the “LogK Cu” value in data set [3] is listed as 9.96. Moreover, the “LogK Zn” value in data set [4] is reported as 9.65. Further, the inhibition at 20 µM on Aβ1–42 is 74.8 ± 4.7%.
With `Oc1cccc2ccc(CN3CCN(CCNc4c5c(nc6ccccc46)CCCC5)CC3)nc12` [Compound 16a, 2-((4-(2-((1,2,3,4-Tetrahydroacridin-9-yl)amino)ethyl)piperazin-1-yl)methyl)quinolin-8-ol], the half-inhibitory concentration (IC50) in data set [1] is 270 ± 4 nM. Besides, in data set [2], the IC50 is 440 ± 6 nM and the “Selectivity Index = IC50” value came out at 1.63. Further, the “LogK Cu” value in data set [3] is listed as 9.63. Besides, the “LogK Zn” value in data set [4] is on record as 9.48. Further, on Aβ1–42, the inhibition at 20 µM came to 77 ± 4.3%.
For `COc1cc(/C=C/C(=O)CC(=O)/C=C/c2ccc(O)c(OC)c2)ccc1O` [curcumin, reference compound], on Aβ1–42, the inhibition at 20 µM turned out to be 58.3 ± 2.5%.
`Nc1cccc2ccc(CN3CCN(CC(=O)Nc4c5c(nc6ccccc46)CCCC5)CC3)nc12` [Compound 15f, 2-(4-((8-Aminoquinolin-2-yl)methyl)piperazin-1-yl)-N-(1,2,3,4-tetrahydroacridin-9-yl)acetamide]: the 50% inhibitory concentration (IC50) is 7850 ± 710 nM in data set [1] and 1240 ± 210 nM in data set [2]. For the same compound, the “Selectivity Index = IC50” value in data set [2] worked out at 0.16. Besides, the inhibition at 20 µM at Aβ1–42 is 22 ± 1.8%.

Source of the values: publication PMC12430544 (Molecules, 2025).
